US8790675B2, “Biocide compositions comprising carbamates” (priority 2009, dated 2014)

Test: Solubility of biocides in solvents at 25° C.
Settings: for Solubility of biocides: Tebucanozole: Tebucanozole dissolved in the solvent, 25° C.
Method: Solubility of two fungicides, one herbicide and two insecticides in different dialkyl amides at 25° C. was tested.

Structure (SMILES) | able to dissolve or disperse a wide range of biocides better than solvents known from the state of the art (wide range of biocides, versus state-of-the-art solvents) | Solubility of biocides: Tebucanozole
CN(C)C(=O)OCCO [Example 5] | 20% | 
CCCCNC(=O)OCCO [Example 7] |  | 20 % b.w.
CCCNC(=O)OCCO [Example 8] |  | 23 % b.w.
